These results are taken from US20230346735A1, “Nutritional Composition Comprising Carnitine and Method for Treating or Preventing an Infection in a Mammal” (priority 2020, published 2023).

Marks after values point to notes of the source that are not given here.

Assay [1] concerns TMPRSS2. The assay is described as follows: TMPRSS2 protein and mRNA in rat tissue samples. In kind it is in vivo. To be noted: exercised rats. The source says: (§1) After a week of the adaptation period, the rats were divided into eight equal groups containing seven rats each. The initial body weights of the rats were similar in all the groups (214.53 grams ± 4.67; P > 0.05).
(§2) Groups 1 and 2 were not subjected to an exercise routine. Groups 3-8 were subjected to an exercise regimen consisting of a week training period with an incremental exercise capacity described below. After the week training period the exercise regimen followed was each rat in Groups 3-8 were subjected to 6 weeks of running at 25 m/min during 45 min […]. […] These correspond to 0, 250, 500, 1000, 2000 and 4000 mg per day for humans, respectively.
To determine the protein accumulation in the liver, muscle and lung samples, a Western Blotting test was used. Each of the tissue samples of the same group were pooled, homogenized, and sonicated in lysis buffer supplemented with 1X protease and phosphatase inhibitor cocktail (#5872, Cell Signaling). Total protein content was detected with Qubit 2.0 Fluorometer according to the manufacturer’s protocol (Invitrogen, Life Technologies Corporation, Carlsbad, CA, USA). […] Protein levels were analyzed densitometrically using an image analysis system (Image J; National Institute of Health, Bethesda, MD, USA), corrected with values determined on β-actin blots and expressed as relative values compared with the control group. […]

In assay [2] the test system is glutathione peroxidase. In words: Antioxidant capacity: glutathione peroxidase in exercised rats. To be noted: 6 weeks. It counts as in vivo, rat. As to the method:
(§3) Fifty-six (56) Male Wistar rats that were 8-week old were obtained. The rats were reared at the temperature of 22 ± 2° C., the humidity of 55 ± 5%, and with a 12-hrs light-12-hrs dark cycle. All procedures involving rats were conducted in strict compliance with the relevant laws, the Animal Welfare Act, Public Health Services Policy, and guidelines established by the Institutional Animal Care and Use Committee of the Institute of the contracted University which completed the study.
as §1, §2
(§4) The exercised rats were subjected to treadmill exercise on a motorized rodent treadmill (Commat Limited, Ankara, Turkey). The treadmill contained a stimulus grid at the back end of the treadmill giving an electric shock when the animal placed its paw on the grid. […] To eliminate the diurnal variations, all exercise tests were applied during the same time of the day. The week of training period was provided as pre-training practice for the animals to get familiar with the treadmill equipment and handling. In doing so, the rats in the exercise training groups were accustomed by treadmill exercise over 5 days such that: (i) 1st day, 10 m/min for 10 min, (ii) 2nd day, 20 m/min for 10 min, (iii) 3rd day, 25 m/min for 10 min, (iv) 4th day, 25 m/min for 20 min and (v) 5th day, 25 m/min for 30 min. After the training period, the rats in treadmill exercise groups ran on the treadmill 25 m/min for 45 min/ per day and five days per week for 6 weeks according to the protocol described by Sahin et al. Capsaicinoids Improve the Consequences of Physical Activity. Toxicol Rep. 2018;5:598-607, which is hereby incorporated by reference.
(§5) The exercise regimen was used to induce an inflammation and oxidative stress conditions. […] The results of malondialdehyde, superoxide dismutase, catalase, and glutathione peroxidase for each rat group are shown in TABLE 2.

For assay [3], the system named is superoxide dismutase. In words: Antioxidant capacity: superoxide dismutase in exercised rats. In kind it is in vivo, rat. To be noted: 6 weeks. As to the method: as §3, §1, §2, §4, §5
Assay [4] concerns Furin. The assay is described as follows: Furin mRNA expression in Calu-3, RT real-time PCR. It counts as cell-based, human. To be noted: Calu-3, 50 to 1,000 uM, 24 hr pre-treatment. On the technique in general: Quantitative PCR measures a nucleic acid by following its amplification.
Assay [5] concerns catalase. The assay is described as follows: Antioxidant capacity: catalase in exercised rats. As to conditions: 6 weeks. It counts as in vivo, rat. As to the method:
as §3, §1, §2, §4, §5

The test system of assay [6] is ACE-2. The assay is described as follows: ACE-2 mRNA expression in Calu-3, RT real-time PCR. It counts as cell-based, human. To be noted: Calu-3, 50 to 1,000 uM, 24 hr pre-treatment. As to the method: To quantify the human gene expression, Calu-3 seeded in a 12-well plate (220,000 cells) were stimulated with 100 uM, 500 uM and 1000 uM Carnitine alone for 24 h. RNA was extracted using TRIzol (Qiagen) as per standard protocol and total RNA was reverse transcribed using SuperScript II RT (Invitrogen). Expression levels of ACE-2 and TMPRSS2 were evaluated by SYBR real-time PCR using gene-specific primers as previously reported (Ma et al., Eye 2020;34:1212). GAPDH was used as an internal normalizer. […] Fold change in expression relative to that in untreated cells was determined using the standard ddCt method.

[7] abbreviates: Car200: 200 mg/kg oral gavage, no exercise.
Setting [8] is: Ex+Car25: exercise, 25 mg/kg oral gavage.
Setting [9] is: Ex+Car50: exercise, 50 mg/kg oral gavage.
The mark [10] stands for this setting: Ex+Car100: exercise, 100 mg/kg oral gavage.
[11] abbreviates: Ex+Car200: exercise, 200 mg/kg oral gavage.
Setting [12] is: Ex+Car400: exercise, 400 mg/kg oral gavage.

`C[N+](C)(C)C[C@H](O)CC(=O)[O-]` [L-carnitine]: the “TMPRSS2 mRNA levels” value in assay [1] (tissues, versus exercise control) is listed as “dose-dependent decrease”. In assay [1] (western blotting), the TMPRSS2 protein level result is reported as “return to the baseline control”. The GSHPx in assay [2] (setting [7]) is 48.74±1.11^d U/mg protein; in assay [2] (setting [8]) it was 49.75±1.08^d U/mg protein; in assay [2] (setting [9]), 55.91±0.85^c U/mg protein; in assay [2] (setting [10]), 59.57±0.68^bc U/mg protein; in assay [2] (setting [11]), 62.58+1.03^b U/mg protein; in assay [2] (setting [12]), 69.06±1.53^a U/mg protein. Further, the SOD in assay [3] (setting [7]) is recorded as 95.87±2.47^cd U/mg protein; in assay [3] (setting [8]), 96.49±0.78^cd U/mg protein; in assay [3] (setting [9]) it was 102.89±2.69^bc U/mg protein; in assay [3] (setting [10]), 109.68±2.49^ab U/mg protein; in assay [3] (setting [11]), 114.56±2.70^a U/mg protein; in assay [3] (setting [12]) it was 120.16±3.58^a U/mg protein. Further, the Furin expression levels entry in assay [4] was “did not show any effect”. Further, the CAT was 147.19±2.01^de U/mg protein in assay [5] (setting [7]); 144.55±3.21^de U/mg protein in assay [5] (setting [8]); 152.72±2.50^cd U/mg protein in assay [5] (setting [9]); 162.11±1.97^bc U/mg protein in assay [5] (setting [10]); 170.77±2.57^b U/mg protein in assay [5] (setting [11]); 186.10±2.50^a U/mg protein in assay [5] (setting [12]). In assay [6], the “ACE-2 mRNA levels” value is “statistically significant downregulation”.
